These results are taken from ChEMBL document CHEMBL1201862, “PubChem BioAssay data set” (2004).

Some test systems named below: HCT-116; EKVX; SW-620; HOP-62; SK-MEL-28; OVCAR-3; SF-295; HOP-92; UACC-62; OVCAR-8; M19-MEL; NCI-H23; SNB-75; MOLT-4; NCI-H226; CCRF-CEM; K562; OVCAR-5; DU-145; MDA-N.
Holding throughout (experiment): NCI-60 cell line screen, 48 h

The structures appear in SMILES notation.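 48-hour exposure; five concentrations; linearly interpolated endpoints. At the GI50, growth is halved.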 Activity calls are given as the source filed them. Rule as the data show it: active = GI50 up to about 1.1 µM and inactive = higher.

As to `CN(C)/C(=N\C#N)NCc1ccccc1`, the GI50 with HCT-116, with EKVX, with SW-620, in the assay on HOP-62, in the assay on SK-MEL-28 and in the assay with OVCAR-3 was > 100 µM (inactive) in each case. The GI50 in the assay on SF-295, in the assay on HOP-92, with UACC-62, with OVCAR-8, with M19-MEL and with NCI-H23 was > 100 µM (inactive) in each case.
Regarding `COc1ccc2cc(C(=O)c3ccccc3C(=O)O)ccc2c1`, the GI50 in the assay on HCT-116, in the assay on SNB-75, with EKVX, in the assay with SW-620, in the assay with MOLT-4 and in the assay with NCI-H226 was > 100 µM (inactive) throughout. The GI50 in the assay on HOP-62, with SK-MEL-28, in the assay with OVCAR-3, in the assay with CCRF-CEM, in the assay with SF-295 and with K562 was > 100 µM (inactive) in each case. Moreover, the GI50 in the assay on UACC-62, in the assay on OVCAR-8, in the assay on OVCAR-5, with M19-MEL and in the assay with NCI-H23 was > 100 µM (inactive) each time.
On to `CN(C)c1ccc2c(=O)c3ccccc3oc2n1`, for which the GI50 in the assay with SNB-75 is > 100 µM (inactive); in the assay with EKVX it was 35 µM (inactive); with SW-620, > 100 µM (inactive); in the assay with MOLT-4 it was > 100 µM (inactive); in the assay with HOP-62 it was 56.6 µM (inactive); with SK-MEL-28, > 100 µM (inactive). Besides, the GI50 was 91.6 µM (inactive) with OVCAR-3; > 100 µM (inactive) in the assay with CCRF-CEM; > 100 µM (inactive) in the assay on SF-295; > 100 µM (inactive) with HOP-92; > 100 µM (inactive) with K562; > 100 µM (inactive) in the assay with UACC-62. Moreover, the GI50 in the assay with OVCAR-8, with OVCAR-5, with M19-MEL and with NCI-H23 was > 100 µM (inactive) each time.
For `COC(=O)/C(=N\NC(=O)C[N+](C)(C)C)C(C(=O)OC)C(=O)C(=O)Nc1ccccc1C(N)=O` (stereo not drawn), the GI50 in the assay with HCT-116, in the assay on SNB-75, in the assay with EKVX, with SW-620, in the assay with MOLT-4 and in the assay on NCI-H226 was > 100 µM (inactive) each time. The GI50 with HOP-62, in the assay with SK-MEL-28, in the assay on OVCAR-3, in the assay on CCRF-CEM, in the assay on SF-295 and in the assay on K562 was > 100 µM (inactive) each time. The GI50 in the assay with UACC-62, with OVCAR-5, with M19-MEL and with NCI-H23 was > 100 µM (inactive) throughout.
Take `Clc1ccc(-c2nnc(C34CC5CC(CC(C5)C3)C4)o2)cc1`: the GI50 with HCT-116, with SNB-75, in the assay on EKVX, in the assay with SW-620, in the assay on MOLT-4 and in the assay with NCI-H226 was > 100 µM (inactive) each time. For the same compound, the GI50 with HOP-62, with SK-MEL-28, with OVCAR-3, in the assay on CCRF-CEM, in the assay on DU-145 and in the assay on SF-295 was > 100 µM (inactive) in each case. Also, the GI50 with HOP-92, in the assay on K562, in the assay on UACC-62, in the assay with OVCAR-8, in the assay with MDA-N and in the assay on OVCAR-5 was > 100 µM (inactive) each time. In addition, in the assay with NCI-H23, the GI50 is > 100 µM (inactive).
`Oc1cc(-c2ccccc2)cn2c1nc1ccccc12`: the GI50 with HCT-116 is 0.767 µM (active); with SNB-75, > 36.3 µM (inactive); in the assay on EKVX, > 94.2 µM (inactive); with SW-620, 0.544 µM (active); in the assay with MOLT-4, 3.44 µM (inactive); in the assay on NCI-H226 it was > 25.4 µM (inactive). The GI50 was 2.4 µM (inactive) in the assay on HOP-62; 4.31 µM (inactive) in the assay on SK-MEL-28; 1.22 µM (inactive) in the assay on OVCAR-3; 3.4 µM (inactive) in the assay with CCRF-CEM; 4.55 µM (inactive) with DU-145; 6 µM (inactive) in the assay with SF-295. Further, the GI50 was > 25.5 µM (inactive) in the assay on HOP-92; 0.525 µM (active) in the assay with K562; 0.33 µM (active) in the assay with UACC-62; 2.42 µM (inactive) in the assay with OVCAR-8; 0.253 µM (active) with MDA-N; > 100 µM (inactive) with OVCAR-5. Also, in the assay on NCI-H23, the GI50 was 6.37 µM (inactive).
With `c1cc2nnc1SCCSCCCSCCS2`, the GI50 is > 100 µM (inactive) in the assay on HCT-116; 5.83 µM (inactive) in the assay with SNB-75; > 100 µM (inactive) in the assay on EKVX; > 100 µM (inactive) in the assay with SW-620; > 100 µM (inactive) with MOLT-4; > 100 µM (inactive) in the assay on NCI-H226. Moreover, the GI50 in the assay with HOP-62 was 35.2 µM (inactive); with SK-MEL-28, 29.2 µM (inactive); with OVCAR-3 it was > 100 µM (inactive); with CCRF-CEM, > 100 µM (inactive); in the assay on DU-145, 2.86 µM (inactive); in the assay with SF-295, > 100 µM (inactive). Besides, the GI50 was 46.5 µM (inactive) in the assay on HOP-92; > 100 µM (inactive) in the assay on K562; > 100 µM (inactive) with UACC-62; > 100 µM (inactive) in the assay on OVCAR-8; > 100 µM (inactive) with MDA-N; > 100 µM (inactive) in the assay with OVCAR-5. Also, in the assay with NCI-H23, the GI50 was > 100 µM (inactive).
On to `CCCCCCCCCCCC(=O)OC(COC(N)=O)COc1ccc(Cl)cc1` (stereo not drawn), for which the GI50 in the assay with HCT-116 was 15.9 µM (inactive); in the assay on SNB-75, 33.4 µM (inactive); in the assay with EKVX it was 30.1 µM (inactive); in the assay with SW-620 it was 24.3 µM (inactive); in the assay on MOLT-4 it was 23.7 µM (inactive); in the assay with NCI-H226, 17.3 µM (inactive). The GI50 with HOP-62 is 25 µM (inactive); in the assay on SK-MEL-28 it was 20.3 µM (inactive); in the assay on OVCAR-3, 16.3 µM (inactive); with CCRF-CEM, 18.2 µM (inactive); with SF-295, 20.3 µM (inactive); in the assay on K562, 19.2 µM (inactive). Besides, the GI50 is 19.5 µM (inactive) with UACC-62, 17.7 µM (inactive) in the assay with OVCAR-8, 18.6 µM (inactive) in the assay with M19-MEL and 20.7 µM (inactive) in the assay with NCI-H23.
`C/C=C/C=C/c1nc(C#N)c(N)o1`: the GI50 with HCT-116 was > 100 µM (inactive); with SNB-75, > 100 µM (inactive); in the assay with EKVX, > 100 µM (inactive); in the assay with SW-620, > 100 µM (inactive); in the assay on MOLT-4 it was 63.8 µM (inactive); with NCI-H226, > 100 µM (inactive). In addition, the GI50 in the assay with HOP-62 was > 100 µM (inactive); in the assay with SK-MEL-28, > 100 µM (inactive); in the assay on OVCAR-3, > 100 µM (inactive); in the assay on CCRF-CEM it was 7.08 µM (inactive); with DU-145 it was > 100 µM (inactive); with SF-295, > 100 µM (inactive). Besides, the GI50 with HOP-92, in the assay with K562, in the assay on UACC-62, in the assay with OVCAR-8, with MDA-N and with OVCAR-5 was > 100 µM (inactive) in each case. In addition, in the assay on NCI-H23, the GI50 was > 100 µM (inactive).
